# Measured values from patent US12139488B2, “Pyrido[3,2-d]pyrimidine compounds uses thereof for treating a proliferative disease” (Universite de Montreal, priority 2021, dated 2024).
# Assays:
# [1] = target: ARAF (Homo sapiens (Human), UniProt P10398); assay: ARAF kinase activity assay (AlphaLISA p-MEK 1/2 detection); format: biochemical
# Method: Compound preparation: solid samples of each substances in 1 dram vials were suspended in DMSO (Fisher Scientific) at a stock concentration of 20 mM. Stocks were kept at −20° C. and protected from light. If solubility of the compound at 20 mM appeared to be an issue, the initial concentration of the DMSO stock was changed to 10 mM or 5 mM.
# In vitro enzymatic reactions were used for evaluating compounds intrinsic activity against BRAF, CRAF and ARAF. For BRAF and CRAF, 0.375 nM of purified GST-tagged kinases (cat #B4062-10 UG and cat #R1656-10 UG respectively from Millipore Sigma) were incubated with 75 nM of kinase-dead MEK1 substrate (cat #40075; BPS Bioscience) in the presence of 10 μM of Ultrapure ATP (cat #V9102; Promega; part V915A) with and without the test compound in a buffer containing 50 mM HEPES pH 7.5, 10 mM MgCl2, 1 mM EDTA, 0.01% Brij-35 and 2 mM DTT. Separate reactions were performed with the MEK1 substrate and ATP as a blank control. ARAF, kinase reactions were rigorously the same with the exception that kinase concentration was raised to 3.75 nM (cat #1768-0000-1; Reaction Biology).
# For compound treatment, 5 μL/well of test substance solution are placed in a 384-well proxyplate (Perkin Elmer) and mixed with 2× concentrated kinase reactions. The dilution series is selected so that nine concentrations cover a range from 100 nM to 0.01 nM. […] The final concentration of DMSO in the assay is set at 0.05%.
# ARAF kinase reactions were carried out for a total of 2 hours at 30° C. and then stopped by addition of EDTA at a final concentration of 40 mM. Reactions were then detected using the AlphaLISA® SureFire® Ultra™ p-MEK 1/2 (Ser218/222) (PerkinElmer) kit. Reactions were performed with 5 μL of kinase reaction according to the manufacturer's specifications in 384-well proxyplates (Perkin Elmer) followed by overnight incubation of the AlphaLISA® reactions at room temperature in a humidified chamber. After completion of the detection reactions, the signals were recorded on a Synergy Neo2 plate reader (Biotek) equipped with AlphaLISA® filters. The effect of each compound dilution on the pMEK signal generated by ARAF reactions was expressed in % inhibition and calculated as follows. An internal 100% inhibition control (average of luminescence in kinase reactions comprising kinase dead MEK1 substrate alone) was included in each plate to measure of pMEK background and was subtracted from each data point. The average of DMSO (vehicle) controls (set as 0% inhibition) was also established and used to calculate % inhibition: % inhibition=100*(1−((pMEK signalcompound)/(pMEK signalDMSO)))
# IC50 values were obtained by plotting the kinase inhibition values and fitting the dose-activity curves using a log(agonist) versus response-variable slope (four parameters) function using either GraphPadPrism (V7.0) or Dotmatics Screening Ultra platform. Standards included in the ARAF kinase assay were Belvarafenib (MedChem Express cat #HY-109080; CAS #1446113-23-0), LXH254 (MedChem Express cat #HY-112089; CAS #1800398-38-2) and BGB283 (cat #HY-18957; CAS #1446090-79-4).
# [2] = tested on: pERK in NCI-H2122 cells (KRAS-G12C); assay: Phospho-ERK inhibition (AlphaLISA), NCI-H2122; format: cell-based, human; details: for IC50: NCI-H2122; for NCI-H2122 pERK % Ymin: NCI-H2122, value in parentheses
# Method: All cancer cell lines (A375, A101D, A2058, RKO, HT29 SK-MEL 30, IPC298, HepG2, HCT-116, Lovo, SWV620, SW480, NCI-H358, NCI-H2122, Calu-6, NCIH2087, NCIH1755, NCIH1666 and Mewo) were obtained from ATCC and cultured in RPMI-1640 medium (Gibco) supplemented with 5% heat inactivated fetal bovine serum (FBS, Wisent) at 37° C. under 5% CO2. Cells were maintained in T175 flasks (Greiner). They were passaged by removing the culture medium, washing once in 10 mL of room temperature Phosphate Buffered Saline (PBS; Wisent) and incubating at 37° C. with 2 mL of 0.05% Trypsin (Thermo-Fisher). Trypsin was then inactivated by adding complete growth medium and the cells were then replated in a T175 culture dish at the appropriate dilution. All cell lines were routinely tested for mycoplasma contamination. Tissue type and mutational status of each cell line can be found in Table B.
# AlphaLISA® SureFire® Ultra™ p-ERK 1/2 (Thr202/Tyr204) analysis was conducted on cells plated in 100 μL of complete RPMI-1640 growth medium in 96-well flat-bottomed transparent dishes (Costar) at a density indicated in Table C. Cells were maintained overnight at 37° C. under 5% CO2 before treatment with compounds' dilution series for one hour. The cell density in cells/cm^2 corresponds to cell number divided by the area of one well of a 96-well plate ([…]).
# In a dilution series 100 μL/well of test substance dilution prepared in complete RPMI-1640 growth media was added to the cells. The dilution series is selected so that ten concentrations cover a range from 10 μM to 0.33 nM. If necessary the initial concentration of 10 μM is increased to 100 μM or lowered to 1 μM (as in the case of A375 and H1666 cells, which are generally more sensitive to the compounds) and further dilution is carried out accordingly. The final concentration of DMSO in the assay is set at 0.5%.
# After treatment, media was removed and cells were lysed in 50 μL of 1× AlphaScreen Ultra Lysis Buffer (Perkin Elmer). The AlphaLISA® SureFire® Ultra™ p-ERK 1/2 (Thr202/Tyr2O4) (PerkinElmer) reactions were performed with 5 μL of cell lysate according to the manufacturer's specifications in 384-well proxyplates (Perkin Elmer) followed by overnight incubation of the reactions at room temperature in a humidified chamber. After completion of the reactions, the signals were recorded on an EnVision plate reader (Perkin Elmer) using built in AlphaLISA® settings.
# The effect of each compound dilution on the pERK signal was expressed in % inhibition and calculated as follows. An internal 100% inhibition control ([…] trametinib, cat #HY-10999; MedChem Express; CAS #871700-17-3) was included in each plate and used as a measure of pERK background. First, the value obtained for trametinib was subtracted from each data point. The average of DMSO (vehicle) controls (set as 0% inhibition) was established and used to calculate % inhibition: % inhibition=100*(1-((pERK signalcompound)/(pERK signalDMSO)))
# The ability of each compound to inhibit pERK signal was expressed as an IC50 value obtained by plotting the inhibition values for each data point of a dilution series and fitting the obtained curves using a log(agonist) versus response-variable slope (four parameters) function using GraphPadPrism (V7.0) or Dotmatics Screening Ultra platform.
# When present, paradoxical pERK induction is inferred from the negative % inhibition values observed in the pERK IC50 curves of a compound.
# Sequence of ARAF (P10398 whole entry): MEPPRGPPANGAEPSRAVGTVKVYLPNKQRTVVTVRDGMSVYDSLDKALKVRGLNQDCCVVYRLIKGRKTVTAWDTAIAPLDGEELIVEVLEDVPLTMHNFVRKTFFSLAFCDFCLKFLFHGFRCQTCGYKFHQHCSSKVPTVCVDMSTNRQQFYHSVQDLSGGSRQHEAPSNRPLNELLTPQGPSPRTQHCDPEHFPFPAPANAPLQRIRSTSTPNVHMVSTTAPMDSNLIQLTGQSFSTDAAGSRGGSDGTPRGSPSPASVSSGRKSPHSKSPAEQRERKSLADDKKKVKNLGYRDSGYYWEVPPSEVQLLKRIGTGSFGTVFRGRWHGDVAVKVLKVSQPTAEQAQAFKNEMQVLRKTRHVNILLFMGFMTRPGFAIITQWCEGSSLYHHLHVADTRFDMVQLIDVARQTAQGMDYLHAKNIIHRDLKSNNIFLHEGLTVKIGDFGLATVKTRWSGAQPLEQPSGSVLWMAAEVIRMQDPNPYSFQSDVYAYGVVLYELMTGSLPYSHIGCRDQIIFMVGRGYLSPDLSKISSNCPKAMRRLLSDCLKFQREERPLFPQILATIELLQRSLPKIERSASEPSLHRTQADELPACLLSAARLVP
IC50 [1],IC50 ([2]; Homo sapiens),IC50 [2],Structure (SMILES),NCI-H2122 pERK % Ymin [2]
> 10 nM,30 to 300 nM,,"Cc1ccc2c(Nc3cccc(Cl)c3F)nccc2c1NC(=O)c1csc2c(N)ncnc12 [Belvarafenib, reference compound]",−9%
< 1 nM,,30 to 300 nM,Nc1cccc2c1ncn2-c1ccc2ncnc(Nc3c(F)ccc(NS(=O)(=O)c4cccc(Cl)c4Cl)c3F)c2n1 [Example 99],−3%
1 to 10 nM,,30 to 300 nM,CC1(O)CCN(c2cccc3c2ncn3-c2ccc3ncnc(Nc4c(F)ccc(NS(=O)(=O)c5cccc(Cl)c5Cl)c4F)c3n2)CC1 [Example 524],13%
